# Reference: patent US11826372B2, “Combinations including ABX196 for the treatment of cancer” (ABIVAX, priority 2016, dated 2023)
# Where two headings read alike, the source gives them in different places.
# How the values were obtained:
# Hepa 1-6 Hepatocarcinoma = details: for Fraction alive / Fraction without detectable metastasis: Day 61, orthotopic Hepa 1-6 in C57BL/6 mice; for Tumor invasion of the liver at day 20, Dunn's multiple comparisons test vs Vehicle: Mean rank diff.: ABX196 100 ng IV D5, sorafenib 100 mg/kg PO Q1Dx21, doxorubicin 12 mg/kg IV D5, anti-PD-1 10 mg/kg IP D7/D10/D14/D17
# Procedure: Tumor invasion was evaluated semi-quantitively by a visual evaluation of the percentage of tumor in the entire liver.
# One million (1×106) of tumor cells in 50 μL of RPMI 1640 medium were transplanted via intra-splenic injection into 100 C57BL/6 mice. Briefly, a small left subcostal flank incision was made. Spleen was exteriorized. The spleen was exposed on the sterile gauze pad, and injected under visual control with the cell suspension with a 27-gauge needle. After the cell inoculation, the spleen was excised. The day of tumor cell injection was considered as DO.
# The treatment started at D5. Ninety-nine animals (99) out of one hundred (100) were randomized according to their individual body weight into 3 groups of 13 animals and 5 groups of 12 animals using Vivo Manager® software (Biosystemes, Couternon, France). A statistical test (analysis of variance, ANOVA) was performed to test for homogeneity between groups. The treatment schedule was as follows: • Animals from group 1 received one IV injection of ABX196 vehicle at day 5, • Animals from group 2 received one daily PO administration of sorafenib at 100 mg/kg/adm for 21 consecutive days, starting at day 5, • Animals from group 3 received one IV injection of 100 ng of ABX196 on day 5 and one daily PO administration of sorafenib at 100 mg/kg/adm for 21 consecutive days, starting at day 5, • Animals from group 4 received one IV injection of Doxorubicin at 12 mg/kg on day 5, • Animals from group 5 received one IV injection of 100 ng of ABX196 and one IV injection of Doxorubicin at 12 mg/kg on day 5, • Animals from group 6 received 4 IP administrations of anti-PD-1 antibody on day 7, 10, 14 and 17 (Twice weekly×2), • Animals from group 7 received one IV injection of 100 ng of ABX196 on day 5 and 4 IP administrations of anti-PD-1 antibody on day 7, 10, 14 and 17 (Twice weekly×2).
# At D19 and D20, 5 mice per group from group 1 to 8 were imaged (40 animals per day). A semi-quantitative analysis was then performed.
# At the time of final mice termination (around D60), liver was weighted. The number of metastases was evaluated macroscopically and the localization, the appearance (shape, colour, consistency) and the size of each of them was recorded. Macroscopic photography of the liver was taken.
# The treatment efficacy was assessed in terms of the effects of the test substance on the tumor volumes of treated animals relative to control animals. The following evaluation criteria of antitumor efficacy were determined: • Individual and/or mean (or median) measurement at D19-20 of tumor invasion within the liver using MRI imaging, • Measurement of circulating a-Fetoprotein in the plasma at D22, • Liver weight measured at termination, • Survival curves, • Median survival times.
# Statistical analysis of tumor invasion between vehicle and each group at day 20.
# Pair wise comparison with Dunn's test
# CT-26 Colorectal Cancer = experiment: Antitumor activity of ABX196 alone or with anti-PD-1 antibody in mice bearing subcutaneous CT-26 colorectal cancer (Example 6); type: in vivo, mouse; details: CT-26 in BALB/c mice; ABX196 100 ng IV Q1Dx1; anti-PD-1 Ab 10 mg/kg IP TWx2
# Procedure: Body weights were measured twice a week.
# Melanoma B16F10 tumor = details: for T/C (antitumor activity index): B16F10 in C57BL/6 mice, ABX196 100 ng i.v. or 10 ng i.t. Day 10, anti-PD-1 mAb 100 μg i.p. Days 6, 9, 12, 15 and 18
# Procedure: The study was performed on a syngeneic in vivo melanoma B16F10 tumor-bearing mouse model. B16F10 tumor cells were subcutaneously inoculated in immuno-competent C57BL/6 mice.
# Melanoma B16F10 tumor cells were subcutaneously inoculated at day 0 by injecting cells in the flank of 8-10 weeks-old female C57BL/6 mice, and animals were then randomly assigned into control (vehicle PBS-treated) and treatments groups.
# For the anti-PD-1 antibodies treatment, mice were intraperitoneally (IP) injected with anti-PD-1 antibodies at Day 6, 9, 12, 15 and 21. Furthermore, ABX196 was administered at 1 dose, intravenously or intratumorally, with one administration at Day 10 when mean of tumor size reached 100 mm^3.
# The animal pharmacological groups for anti-tumor efficacy assessment were organized as such: • Control vehicle-treated group (PBS according to anti-PD-1 treatment schedule) • Anti-PD-1-treated group (at 1 dose, intraperitoneal administration) • ABX196-treated group (at 1 dose, Intravenous (iv) administration at Day10) • Combination-treated group (ABX196 at 1 dose, Intravenous (iv) administration at Day10 in combination with anti-PD-1 antibodies at 1 dose, intraperitoneal (ip) administration) • ABX196-treated group (at 1 dose, Intratumoral (it) administration at Day10) • Combination-treated group (ABX196 at 1 dose, Intratumoral (it) administration at Day10 in combination with anti-PD-1 antibodies at 1 dose, intraperitoneal (ip) administration)
# Tumor volume and body weight of the animals were measured and recorded three times per week. A tumor volume exceeding 2000 mm3 or a weight loss greater than 15% relative to the initial weight of the animal were considered as endpoints.
# B16F10 cells were implanted subcutaneously in the right flank of C57BL/6 immunocompetent mice (8 week-old female). The implantation procedure was as follows (all steps were carried out under sterile laminar flow conditions):
# Mice (body weight around 20 g) were anesthetized with an intraperitoneal injection of 90 μL of anesthetic (ie 1.5 mg/Kg Ketamine and Xylazine 150 μg/Kg). The cells to be implanted were resuspended in sterile PBS and the volume needed to implant was loaded in 1 ml syringe with a needle (1,000,000 cells/100 μL).
# Anti-PD-1 monoclonal antibodies (a-PD-1) treatment schedule was applied, at 100 μg by i.p. injection. Treatment was repeated 4 times, at Days 6, 9, 12, 15 and 18.
# ABX196 was administered at Day 10 either: • by intravenous (i.v) injection at the dose of 100 ng per mouse; or • by intratumoral (i.t) injection at the dose of 10 ng per mouse
# Starting from day 6 after B16F10 cell inoculation, all experimental animal groups were monitored 3 times per week over a 4 weeks period for the following parameters: • Tumor size: measured by physical examination, 3 times per week, • Body weight: monitored 3 times per week, and • Survival: represented in a Kaplan-Meier plot.
# [1] = Unpaired t test two tailed, with Welch's correction, listed as ABX196 i.t
# [2] = Unpaired t test two tailed, with Welch's correction, listed as ABX196 i.v
# [3] = MBT-2 in C3H/HeJ mice, ABX196 100 ng IV Q1Dx1, anti-PD-1 Ab 10 mg/kg IP TWx2
# Procedure for B16-F10 melanoma: Tumor was induced by subcutaneous injection of 1×10^6 of B16-F10 cells in 200 μL of PBS buffer into the right flank of 95 C57BL/6 female animals. The day of tumor cell injection in the right flank was considered as D0.
# On D3, 90 out of ninety-five 95 were then randomized according to their body weight into 6 groups each of 15 animals (groups 1-6).
# The viability and behavior were recorded every day. Body weights were measured twice a week until injection of tumor cells then thrice a week. The length and width of the tumor were measured thrice a week with calipers and the volume of the tumor was estimated by the formula:
# The treatment efficacy was assessed in terms of the effects of the vaccine composition on the tumor volumes of treated animals relative to control animals. The following evaluation criteria of antitumor efficacy was determined using Vivo Manager® software (Biosystemes, Couternon, France): • Individual, mean and median tumor volumes were provided, • The number of tumor-free mice was provided.
# Mice survival was also monitored and used as an efficacy parameter. Survival curves were drawn.
# Percent treated/control (T/C (%) index) is calculated by dividing the median treated tumor volume by the median control tumor volume on day 14 and multiplying by 100. A T/C % equal or less than 42% is considered significant antitumor activity by the drug evaluation branch of the division of cancer treatment (NCI).
# Tumor growth inhibition is also reflective to the antitumor effectiveness and is calculated following the formula:
# Mean tumor volumes at defined times were analyzed with the GrapadPrism Software (Version 6.07) using the Kruskall-Wallis test for all the treatments. A significant difference between all treatments (P<0.05) was followed by pairwise comparisons using the Dunn's multiple comparison test. Survival was analyzed using the Log-rank (Mantel-Cox) test with GrapadPrism Software (Version 6.07). A significant difference between all treatments (P<0.05) was followed by pairwise comparisons using the Log-rank (Mantel-Cox) test.
# Procedure for MBT-2 Bladder Cancer: ABX196 was administered at the dose of 100 ng per mouse. The anti-PD-1 antibody was administered at the dose of 10 mg/kg.
# MBT-2 tumors were induced by subcutaneous injection of 1×10^6 cells in 200 μL of RPMI 1640 into the right flank of sixty-eight (68) female animals.
# The treatment started when the tumors reached a mean volume of 80-120 mm^3. […] A statistical test (analysis of variance, ANOVA) was performed to test for homogeneity between groups. The treatment schedule was as follows: • Animals from group 1 received an IV injection of ABX196 vehicle and an IP injection of anti-PD-1 antibody vehicle, • Animals from group 2 received an IV injection of 100 ng of ABX196, • Animals from group 3 received twice weekly administrations of anti-PD-1 antibody, • Animals from group 4 received an IV injection of 100 ng of ABX196 and twice weekly administrations of anti-PD-1 antibody.
# The viability and behavior were recorded every day. Body weights were measured twice a week. The length and width of the tumor were measured twice a week with calipers and the volume of the tumor was estimated by the formula:
# All statistical analyses were performed using Vivo Manager® software (Biosystemes, Couternon, France). Statistical analysis of mean body weights, MBWC, mean tumor volumes at randomization, mean tumor volumes V, mean times to reach V and mean tumor doubling times were performed using ANOVA. Pairwise tests were performed using the Bonferroni/Dunn correction in case of significant ANOVA results. The log-Rank (Kaplan-Meier) test was used to compare the survival curves. A p value <0.05 was considered as significant.
structure (smiles),measurement,setting,value
"COc1cccc2c1C(=O)c1c(O)c3c(c(O)c1C2=O)C[C@@](O)(C(=O)CO)C[C@@H]3O[C@H]1C[C@H](N)[C@H](O)[C@H](C)O1 [Doxorubicin, doxorubicin]",Tumor growth in comparison to the vehicle-treated group (in words),"B16-F10 melanoma; B16-F10 tumors in C57BL/6 mice, FIGS. 1 and 3",weak and non-significant
same,Median Survival,"B16-F10 melanoma; C57BL/6 mice, s.c. B16-F10 (1×10^6 cells), CL II-TRP2/ABX196 50 μg/1 μg IV D3, anti-PD-1 Ab 10 mg/kg IP D10/D14/D17/D21, doxorubicin 12 mg/kg IV D7",21 days
same,"Statistical analysis of tumor growth at D17, pairwise comparison with TRP2-ABX196","B16-F10 melanoma; D17, Dunn's multiple comparison test, vs TRP2-ABX196",ns
same,"Statistical analysis of tumor growth at D17, pairwise comparison with TRP2-ABX196 + Doxo.","B16-F10 melanoma; D17, Dunn's multiple comparison test, vs TRP2-ABX196 + Doxo.",* (*P < 0.05)
same,"Statistical analysis of tumor growth at D17, pairwise comparison with TRP2-ABX196 + α-PD-1","B16-F10 melanoma; D17, Dunn's multiple comparison test, vs TRP2-ABX196 + α-PD-1",ns
same,"Statistical analysis of tumor growth at D17, pairwise comparison with Vehic.","B16-F10 melanoma; D17, Dunn's multiple comparison test, vs Vehic.",ns
same,"Statistical analysis of tumor growth at D17, pairwise comparison with α-PD-1","B16-F10 melanoma; D17, Dunn's multiple comparison test, vs α-PD-1",ns
same,"Statistical analysis of tumor growth at D19, pairwise comparison with TRP2-ABX196","B16-F10 melanoma; D19, Dunn's multiple comparison test, vs TRP2-ABX196",ns
same,"Statistical analysis of tumor growth at D19, pairwise comparison with TRP2-ABX196 + Doxo.","B16-F10 melanoma; D19, Dunn's multiple comparison test, vs TRP2-ABX196 + Doxo.",* (*P < 0.05)
same,"Statistical analysis of tumor growth at D19, pairwise comparison with TRP2-ABX196 + α-PD-1","B16-F10 melanoma; D19, Dunn's multiple comparison test, vs TRP2-ABX196 + α-PD-1",ns
same,"Statistical analysis of tumor growth at D19, pairwise comparison with Vehic.","B16-F10 melanoma; D19, Dunn's multiple comparison test, vs Vehic.",ns
same,"Statistical analysis of tumor growth at D19, pairwise comparison with α-PD-1","B16-F10 melanoma; D19, Dunn's multiple comparison test, vs α-PD-1",ns
same,"Statistical analysis of mice survival, pairwise P vs α-PD-1 (row head as printed)","B16-F10 melanoma; Log-rank (Mantel-Cox) test, listed as printed as α-PD-1",0.624
same,"Statistical analysis of mice survival, pairwise P vs Vehicle","B16-F10 melanoma; Log-rank (Mantel-Cox) test, vs Vehicle",0.0015
same,T/C (anti-tumor activity index),"B16-F10 melanoma; day 14, median treated / median control tumor volume ×100, B16-F10 in C57BL/6 mice",56.3%
same,Fraction alive,Hepa 1-6 Hepatocarcinoma,9/12
same,Fraction without detectable metastasis,Hepa 1-6 Hepatocarcinoma,9/12
same,"Tumor invasion of the liver at day 20, Dunn's multiple comparisons test vs Vehicle: Mean rank diff.","Hepa 1-6 Hepatocarcinoma; MRI, day 20",28.52
same,"Tumor invasion of the liver at day 20, Dunn's multiple comparisons test vs Vehicle: Significant?","Hepa 1-6 Hepatocarcinoma; MRI, day 20, vs Vehicle",Yes
CCCCCCCCCCCCCCCCCCCCCCCC(=O)N[C@@H](CO[C@H]1O[C@H](CNC(C)=O)[C@H](O)[C@H](O)[C@H]1O)[C@H](O)[C@H](O)CCCCCCCCCCCCCC [ABX196],T/C (antitumor activity index),CT-26 Colorectal Cancer,51
same,TGI (antitumor activity index),CT-26 Colorectal Cancer,72
same,Effect on tumor volume (in words),"Melanoma B16F10 tumor; B16F10 bearing mice, FIGS. 5 and 6",transient effect
same,T/C (antitumor activity index),Melanoma B16F10 tumor; listed as ABX196 it,53
same,T/C (antitumor activity index),Melanoma B16F10 tumor; listed as ABX196 iv,51
same,Mean Tumor Volume at Day 17 (p value) vs ABX196 i.v,"Melanoma B16F10 tumor; Unpaired t test two tailed, with Welch's correction, vs ABX196 i.v",0.0554
same,Mean Tumor Volume at Day 17 (p value) vs Vehicle,Melanoma B16F10 tumor; [1],0.8942
same,Mean Tumor Volume at Day 17 (p value) vs Vehicle,Melanoma B16F10 tumor; [2],0.2838
same,Mean Tumor Volume at Day 17 (p value) vs αPD-1 + ABX196 i.v,"Melanoma B16F10 tumor; Unpaired t test two tailed, with Welch's correction, vs αPD-1 + ABX196 i.v",<0.0001
same,Mean Tumor Volume at Day 17 (p value) vs αPD-1,Melanoma B16F10 tumor; [1],0.2031
same,Mean Tumor Volume at Day 17 (p value) vs αPD-1,Melanoma B16F10 tumor; [2],0.7081
same,Mean Tumor Volume at Day 17 (Significativity) vs αPD-1 + ABX196 i.v,Melanoma B16F10 tumor; vs αPD-1 + ABX196 i.v,**** (****p < 0.0001)
same,"Statistical analysis of mice survival, pairwise p vs ABX196 + Anti-PD-1","MBT-2 Bladder Cancer; MBT-2, Log-Rank (Mantel-cox) test, vs ABX196 + Anti-PD-1",***0.0002
same,"Statistical analysis of mice survival, pairwise p vs Vehicle","MBT-2 Bladder Cancer; MBT-2, Log-Rank (Mantel-cox) test, vs Vehicle",*0.02
same,Median Survival,"MBT-2 Bladder Cancer; MBT-2 bearing mice, ABX196 100 ng IV, anti-PD-1 Ab 10 mg/kg IP TWx2",27 days
same,T/C (antitumor activity index),MBT-2 Bladder Cancer; [3],57
same,TGI (antitumor activity index),MBT-2 Bladder Cancer; [3],43
CNC(=O)c1cc(Oc2ccc(NC(=O)Nc3ccc(Cl)c(C(F)(F)F)c3)cc2)ccn1 [Sorafenib],Fraction alive,Hepa 1-6 Hepatocarcinoma,5/13
same,Fraction without detectable metastasis,Hepa 1-6 Hepatocarcinoma,5/13
same,"Tumor invasion of the liver at day 20, Dunn's multiple comparisons test vs Vehicle: Mean rank diff.","Hepa 1-6 Hepatocarcinoma; MRI, day 20",8.644
same,"Tumor invasion of the liver at day 20, Dunn's multiple comparisons test vs Vehicle: Significant?","Hepa 1-6 Hepatocarcinoma; MRI, day 20, vs Vehicle",No
same,"Tumor invasion of the liver at day 20, Dunn's multiple comparisons test vs Vehicle: Summary","Hepa 1-6 Hepatocarcinoma; MRI, day 20, vs Vehicle",ns
